Data on 24 molecules can be found in patent EP2508526A1, “Spiroalkene carboxamide derivatives and their use as chemokine receptor modulators” (Ares Trading SA, priority 2011, dated 2012).

This assay concerns the target T1, hCCR2b (Homo sapiens, UniProt P41597).
T1 sequence (P41597 1-360 isoform P41597-2): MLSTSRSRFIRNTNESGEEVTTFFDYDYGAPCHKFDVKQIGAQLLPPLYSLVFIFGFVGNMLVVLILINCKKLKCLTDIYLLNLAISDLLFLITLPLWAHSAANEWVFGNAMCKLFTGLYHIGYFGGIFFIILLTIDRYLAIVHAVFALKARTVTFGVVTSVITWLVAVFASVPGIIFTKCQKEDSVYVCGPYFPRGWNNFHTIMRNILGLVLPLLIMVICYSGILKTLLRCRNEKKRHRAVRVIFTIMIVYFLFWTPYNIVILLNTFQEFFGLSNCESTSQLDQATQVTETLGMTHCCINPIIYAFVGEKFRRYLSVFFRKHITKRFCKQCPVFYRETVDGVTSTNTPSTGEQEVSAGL
Put plainly: CCR2 binding assay ([125I]MCP-1, SPA, CHO cell membranes). Set-up: expressed in transfected cells; host or cells: CHO cells (membrane preparation). The following applies: membranes from CHO cells expressing hCCR2b, 50 pM [125I]MCP-1; read-out: Binding hCCR2 (Ki). As to the method: Membranes were prepared from CHO cells expressing mCCR2b or hCCR2b for use in ligand binding studies. Cells were suspended in 50mM Tris-HCL, pH 7.4, 2 mM EDTA, 250 mM Sucrose and 1x Complete EDTA-free protease inhibitor cocktail (Roche) (Buffer A), and disrupted at 4°C by N2 decompression using a cell disruption bomb (Parr Instrument). Following centrifugation at 200 RCF for 10 min at 4°C, the supernatant was suspended in buffer A and centrifuged again at 19000 RPM (RCSC rotor SS34 code 05 Sorvall Instruments DUPONT) for 90 min at 4°C. The pellet was then suspended in 10 mM HEPES, pH 7.4, 1 mM EDTA, 250 mM Sucrose, and 1x Complete EDTA-free protease inhibitor cocktail (Buffer B) and homogenized using a potter. Membranes were flash frozen in liquid N2 and stored at -80°C. [125I] Monocyte Chemoattractant Protein -1 (MCP-1) (25µCi; Perkin Elmer) was added to test compounds in DMSO (1% final). Membranes and WGA SPA beads (GE Healthcare) were added to give a final volume of 100 µl in 96-well plates with assay concentrations of 50 pM or 100 pM [125I]Monocyte Chemoattractant Protein -1 (respectively for hCCR2b or mCCR2b), 50 mM HEPES, pH 7.4, 5 mM MgCl2, 1 mM CaCl2, 0.1% BSA, 1-5 µg/well of membranes and 100 µg/well of WGA SPA beads. Binding was performed for 90 min at RT with strong agitation of speed 5 (Heidolph Titramax 100 SCITEC) and bound radioactivity was measured on a PerkinElmer 1450 MicroBeta counter. Specific binding was calculated by subtracting remaining radioactivity in the presence of 1000-fold excess of unlabeled compound. Binding data were analyzed using the Genedata Screener® software.

As for `CC1=C(C(=O)N2CCN(c3cccc(C(F)(F)F)c3)CC2)C2(CCN(CC3CCOC3)CC2)OC1=O` (stereo not drawn) [Compound 22, 3-methyl-8-(tetrahydrofuran-3-ylmethyl)-4-({4-[3-(trifluoromethyl)phenyl]piperazin-1-yl}carbonyl)-1-oxa-8-azaspiro[4.5]dec-3-en-2-one], the Ki (usually the equilibrium dissociation constant of an inhibitor or competing ligand from its target) is below 50 nM.
The result for `CC1=C(C(=O)N2CCN(c3cccc(C(F)(F)F)c3)CC2)C2(CCN(C3CCCOC3)CC2)OC1=O` (stereo not drawn) [Compound 23] reads below 50 nM; that for `CC1=C(C(=O)N2CCN(c3cccc(C(F)(F)F)c3)CC2)C2(CCN(C3CCC(C(=O)O)CC3)CC2)OC1=O` (stereo not drawn) [Compound 24, 4-[3-methyl-2-oxo-4-({4-[3-(trifluoromethyl)phenyl]piperazin-1-yl}carbonyl)-1-oxa-8-azaspiro[4.5]dec-3-en-8-yl]cyclohexanecarboxylic acid], 50 to 100 nM; that for `COc1ccc(C2(O)CCC(N3CCC4(CC3)OC(=O)C(C)=C4C(=O)N3CCc4ccc(C(F)(F)F)cc4C3)CC2)cn1` (stereo not drawn) [Compound 25, 8-[4-hydroxy-4-(6-methoxypyridin-3-yl)cyclohexyl]-3-methyl-4-{[7-(trifluoromethyl)-3,4-dihydroisoquinolin-2(1H)-yl]carbonyl}-1-oxa-8-azaspiro[4.5]dec-3-en-2-one], below 50 nM.
For the molecule `CC1=C(C(=O)N2CCc3ccc(C(F)(F)F)cc3C2)C2(CCN(C)CC2)OC1=O` [Compound 27, 3,8-dimethyl-4-{[7-(trifluoromethyl)-3,4-dihydroisoquinolin-2(1H)-yl]carbonyl}-1-oxa-8-azaspiro[4.5]dec-3-en-2-one], the Ki was below 50 nM.
The result for `CCCN1CCC2(CC1)OC(=O)C(C)=C2C(=O)N1CCc2ccc(C(F)(F)F)cc2C1` [Compound 28, 3-methyl-8-propyl-4-{[7-(trifluoromethyl)-3,4-dihydroisoquinolin-2(1H)-yl]carbonyl}-1-oxa-8-azaspiro[4.5]dec-3-en-2-one] reads below 50 nM; that for `CC1=C(C(=O)N2CCc3ccc(C(F)(F)F)cc3C2)C2(CCN(C3CCCCC3)CC2)OC1=O` [Compound 29, 8-cyclohexyl-3-methyl-4-{[7-(trifluoromethyl)-3,4-dihydroisoquinolin-2(1H)-yl]carbonyl}-1-oxa-8-azaspiro[4.5]dec-3-en-2-one], below 50 nM.
As to `CC1=C(C(=O)N2CCc3ccc(C(F)(F)F)cc3C2)C2(CCN(C3CCCC3)CC2)OC1=O` [Compound 30, 8-cyclopentyl-3-methyl-4-{[7-(trifluoromethyl)-3,4-dihydroisoquinolin-2(1H)-yl]carbonyl}-1-oxa-8-azaspiro[4.5]dec-3-en-2-one], the Ki is below 50 nM.
In the case of `CC1=C(C(=O)N2CCc3ccc(C(F)(F)F)cc3C2)C2(CCN(C3CCC(O)CC3)CC2)OC1=O` (stereo not drawn) [Compound 31, 8-(4-hydroxycyclohexyl)-3-methyl-4-{[7-(trifluoromethyl)-3,4-dihydroisoquinolin-2(1H)-yl]carbonyl}-1-oxa-8-azaspiro[4.5]dec-3-en-2-one], the Ki was below 50 nM.
As for `CC1=C(C(=O)N2CCc3ccc(C(F)(F)F)cc3C2)C2(CCN(C3COC3)CC2)OC1=O` [Compound 32, 3-methyl-8-oxetan-3-yl-4-{[7-(trifluoromethyl)-3,4-dihydroisoquinolin-2(1H)-yl]carbonyl}-1-oxa-8-azaspiro[4.5]dec-3-en-2-one], the figure is 50 to 100 nM; as for `CC1=C(C(=O)N2CCc3ccc(C(F)(F)F)cc3C2)C2(CCN(CC3CCOC3)CC2)OC1=O` (stereo not drawn) [Compound 33, 3-methyl-8-(tetrahydrofuran-3-ylmethyl)-4-{[7-(trifluoromethyl)-3,4-dihydroisoquinolin-2(1H)-yl]carbonyl}-1-oxa-8-azaspiro[4.5]dec-3-en-2-one], below 50 nM; as for `CC1=C(C(=O)N2CCc3ccc(C(F)(F)F)cc3C2)C2(CCN(C3CCOC3)CC2)OC1=O` (stereo not drawn) [Compound 34, 3-methyl-8-(tetrahydrofuran-3-yl)-4-{[7-(trifluoromethyl)-3,4-dihydroisoquinolin-2(H)-yl]carbonyl}-1-oxa-8-azaspiro[4.5]dec-3-en-2-one], below 50 nM.
As for `CC1=C(C(=O)N2CCc3ccc(C(F)(F)F)cc3C2)C2(CCN(C3CCOC(C)(C)C3)CC2)OC1=O` (stereo not drawn) [Compound 35, 8-(2,2-dimethyltetrahydro-2H-pyran-4-yl)-3-methyl-4-{[7-(trifluoromethyl)-3,4-dihydroisoquinolin-2(1H)-yl]carbonyl}-1-oxa-8-azaspiro[4.5]dec-3-en-2-one], the figure is below 50 nM.
The result for `CC1=C(C(=O)N2CCc3ccc(C(F)(F)F)cc3C2)C2(CCN(C3CCOC(C)C3)CC2)OC1=O` (stereo not drawn) [Compound 36, 3-methyl-8-(2-methyltetrahydro-2H-pyran-4-yl)-4-{[7-(trifluoromethyl)-3,4-dihydroisoquinolin-2(1H)-yl]carbonyl}-1-oxa-8-azaspiro[4.5]dec-3-en-2-one] reads below 50 nM; that for `CC1=C(C(=O)N2CCc3ccc(C(F)(F)F)cc3C2)C2(CCN(C3CCS(=O)(=O)CC3)CC2)OC1=O` [Compound 37, 8-(1,1-dioxidotetrahydro-2H-thiopyran-4-yl)-3-methyl-4-{[7-(trifluoromethyl)-3,4-dihydroisoquinolin-2(1H)-yl]carbonyl}-1-oxa-8-azaspiro[4.5]dec-3-en-2-one], 50 to 100 nM.
Turning to `CC1=C(C(=O)N2CCc3ccc(C(F)(F)F)cc3C2)C2(CCN(C3CCN(C)CC3)CC2)OC1=O` [Compound 38, 3-methyl-8-(1-methylpiperidin-4-yl)-4-{[7-(trifluoromethyl)-3,4-dihydroisoquinolin-2(1H)-yl]carbonyl}-1-oxa-8-azaspiro[4.5]dec-3-en-2-one], the Ki lay in the range of 100 to 500 nM.
The result for `CC1=C(C(=O)N2CCc3ccc(C(F)(F)F)cc3C2)C2(CCN(C3CCCS(=O)(=O)C3)CC2)OC1=O` (stereo not drawn) [Compound 39, 8-(1,1-dioxidotetrahydro-2H-thiopyran-3-yl)-3-methyl-4-{[7-(trifluoromethyl)-3,4-dihydroisoquinolin-2(1H)-yl]carbonyl}-1-oxa-8-azaspiro[4.5]dec-3-en-2-one] reads 50 to 100 nM; that for `CCN1CCC2(C1)OC(=O)C(C)=C2C(=O)N1CCc2ccc(C(F)(F)F)cc2C1` (stereo not drawn) [Compound 42, 7-ethyl-3-methyl-4-{[7-(trifluoromethyl)-3,4-dihydroisoquinolin-2(1H)-yl]carbonyl}-1-oxa-7-azaspiro[4.4]non-3-en-2-one], below 50 nM.
The result for `CC1=C(C(=O)N2CCc3ncc(C(F)(F)F)cc3C2)C2(CCN(C3CCC(O)CC3)CC2)OC1=O` (stereo not drawn) [Compound 45, 8-(4-hydroxycyclohexyl)-3-methyl-4-{[3-(trifluoromethyl)-7,8-dihydro-1,6-naphthyridin-6(5H)-yl]carbonyl}-1-oxa-8-azaspiro[4.5]dec-3-en-2-one] reads below 50 nM.
With `CC1=C(C(=O)N2CCc3ncc(C(F)(F)F)cc3C2)C2(CCN(CC3CCOC3)CC2)OC1=O` (stereo not drawn) [Compound 46, 3-methyl-8-(tetrahydrofuran-3-ylmethyl)-4-{[3-(trifluoromethyl)-7,8-dihydro-1,6-naphthyridin-6(5H)-yl]carbonyl}-1-oxa-8-azaspiro[4.5]dec-3-en-2-one], the Ki was below 50 nM.
On to `CC1=C(C(=O)N2CCc3ncc(C(F)(F)F)cc3C2)C2(CCN(C3CCOC(C)C3)CC2)OC1=O` (stereo not drawn) [Compound 47, 3-methyl-8-(2-methyltetrahydro-2H-pyran-4-yl)-4-{[3-(trifluoromethyl)-7,8-dihydro-1,6-naphthyridin-6(5H)-yl]carbonyl}-1-oxa-8-azaspiro[4.5]dec-3-en-2-one], for which the Ki was below 50 nM.
The result for `CCN1CCC2(CC1)OC(=O)C(C)=C2C(=O)N1CCc2ccc(C#N)cc2C1` [Compound 49, 2-[(8-ethyl-3-methyl-2-oxo-1-oxa-8-azaspiro[4.5]dec-3-en-4-yl)carbonyl]-1,2,3,4-tetrahydroisoquinoline-7-carbonitrile] reads 100 to 500 nM; that for `CCN1CCC2(CC1)OC(=O)C(C)=C2C(=O)N1CCc2ccc(Cl)cc2C1` [Compound 50, 4-[(7-chloro-3,4-dihydroisoquinolin-2(1H)-yl)carbonyl]-8-ethyl-3-methyl-1-oxa-8-azaspiro[4.5]dec-3-en-2-one], below 50 nM.
The result for `CCN1CCC2(CC1)OC(=O)C(C)=C2C(=O)N1CCc2cccc(C(F)(F)F)c2C1` [Compound 51, 8-ethyl-3-methyl-4-{[8-(trifluoromethyl)-3,4-dihydroisoquinolin-2 (1H)-yl]carbonyl}-1-oxa-8-azaspiro[4.5]dec-3-en-2-one] reads 500 to 2000 nM.
